Measured values taken from patent US20220249399A1, “COMPOSITION COMPRISING AN ANTI-OXIDANT TO PRESERVE CORNEAL TISSUE” (University of lowa Research Foundation, priority 2019, published 2022).

What was measured:
[1] = tested on: human donor corneal endothelial cells; assay: Apoptosis and necrosis assays on donor endothelial cell-Descemet membrane tissue after storage; assay type: cell-based; conditions: for corneal endothelial cell necrosis, change vs control: vs diluent control
Experimental: Human corneal tissue pairs were obtained by Iowa Lions Eye Bank (ILEB) from nondiabetic donors 60-75 years old and stored in Optisol GS (Bausch+Lomb, Irvine, Calif.) at 4° C. following procurement in accordance with Eye Bank Association of America and ILEB policies and procedures. […] Descemet membrane and endothelial cell punches were collected and mounted onto the bottom of a Seahorse assay plate (cells facing upward). Mitochondrial respiration was assayed by measuring oxygen consumption using the Seahorse XFe24 Extracellular Flux Analyzer (Agilent Technologies, Santa Clara, Calif.) over 120 minutes (9-minute intervals). Punches were labeled with a nuclear counterstain (DAPI) and remaining tissues were mounted onto slides and labeled with 488A-Annexin V, Ethidium Homodimer III, and Hoechst 33342 (Apoptotic, Necrotic, and Healthy Cells Quantification Kit; Biotium, Fremont, Calif.) to assay cell health. Nuclei were counted in each punch to normalize respirometry data. Immunohistochemistry densitometry was measured using ImageJ software.
(§1) Human corneal tissue pairs were obtained by Iowa Lions Eye Bank (ILEB) from nondiabetic donors 60-75 years old and stored in Optisol GS (Bausch+Lomb, Irvine, Calif.) at 4° C. following procurement in accordance with Eye Bank Association of America and ILEB policies and procedures. For 5 days prior to testing, but within 9 days of procurement, one stored tissue from a corneal pair was treated with 10 μM CoQ10, while the mate tissue was treated with diluent only as a control. Descemet membrane and endothelial cell punches were collected and mounted onto the bottom of a Seahorse assay plate (cells facing upward). Mitochondrial respiration was assayed by measuring oxygen consumption using the Seahorse XFe24 Extracellular Flux Analyzer (Agilent Technologies, Santa Clara, Calif.) over 120 minutes (9-minute intervals). Punches were labeled with a nuclear counterstain (DAPI) and remaining tissues were mounted onto slides and labeled with 488A-Annexin V, Ethidium Homodimer III, and Hoechst 33342 (Apoptotic, Necrotic, and Healthy Cells Quantification Kit; Biotium, Fremont, Calif.) to assay cell health. Nuclei were counted in each punch to normalize respirometry data. Immunohistochemistry densitometry was measured using ImageJ software.
as §1, with “100” for “10”, “palmitate-BSA,” for “CoQ10,”, “BSA” for “diluent”
In brief, excess EDM tissues from surrounding the punches used for metabolic assays were incubated with 488A-Annexin V, Ethidium Homodimer III, and Hoechst 33342 (Apoptotic, Necrotic, and Healthy Cells Quantification Kit; Biotium, Fremont, Calif.) to detect the apoptotic, necrotic, and entire cell populations, respectively. […]

[2] = Stability in water (yellowish discoloration = oxidation to ubiquinone); assay type: physicochemical; conditions: shaken in water for 24 h
Experimental: • γ-CD was dissolved in water at different concentrations, and ubiquinol was added to it while stirring (protected from light). • Stirring continues for 2-5 days. Finally, the formed precipitate (complex) was collected and dried. • Yellow discoloration, which indicates the oxidation of ubiquinol following the formation of the yellow oxidized form (ubiquinone), was noticeable at different degrees depending on the stirring time.
In FIG. 11, the image on the right is 5 mg of CoQ10 added to 10 ml H2O and shaken for 24 hours. […] The instability of ubiquinol in water after both free drug or the complex was stirred in water for 24 h explains why the kneading method that involves the minimum amount of water was chosen form preparation.

[3] = 10 μM ubiquinol vs diluent-treated mate cornea, 5 days, n = 9
[4] = 10 μM ubiquinol, 5 days in Optisol-GS, n = 9 matched tissues
[5] = palmitate-BSA treated tissues (100 μM), 5 days, n = 8 matched tissues

Substance: ubiquinol
- protection against apoptosis and necrosis ([1]; 1 μM coQ10, tissues in storage): protected not only against apoptosis, but also against necrosis
- apoptosis reduced in treated cells ([1]; 10 μM CoQ10, 5 days in Optisol GS, vs diluent control (p=0.09)): 29%
- corneal endothelial cell necrosis, change vs control ([1]; 10 μM CoQ10, 5 days in Optisol GS, listed as CoQ10): not changed
- corneal endothelial cell necrosis, change vs control ([1]; 10 μM CoQ10, 5 days in Optisol GS, listed as co-Q10): did not change
- corneal endothelial cell necrosis, change vs control ([1]; 10 μM CoQ10, 5 days in Optisol GS, listed as coenzyme Q10): did not change
- % Apoptotic, Mean Ratio: Ubiquinol/Control (95% CI) [1, 3]: Ratio: 0.90 (0.63, 1.29)
- % Necrotic, Mean Ratio: Ubiquinol/Control (95% CI) [1, 3]: Ratio: 1.02 (0.91, 1.15)
- % Apoptotic, Mean (SD) [1, 4]: 0.0040 (0.0047) %
- % Necrotic, Mean (SD) [1, 4]: 0.0263 (0.0070) %
- apoptosis, change vs controls ([1]; Example 13: 10 μM ubiquinol, 5 days in Optisol-GS (p=0.517)): no significant change
- cell necrosis, change vs controls ([1]; Example 13: 10 μM ubiquinol, 5 days in Optisol-GS (p=0.694)): no significant change
- % Apoptotic, Mean (SD) [1, 5]: 0.00053 (0.00062) %
- % Necrotic, Mean (SD) [1, 5]: 0.0628 (0.0532) %
- CEC cell death in storage ([1]; ubiquinol supplemented corneal storage medium vs non-supplemented): decreased
- stability in water (discoloration) [2]: yellowish discoloration was noticeable
